Several values for one entry are separate records, joined by “and”; a condition that tells them apart may be missing. Equal entries are not always repeated.
Experiments:
Fusarium proliferatum [1] = test: In vitro antifungal activity, 96-well microtiter plates; assay type: cell-based; settings: 5 days at 25° C.
Method: Subsequently, 100 μl of a Botrytis cinerea suspension prepared in PCB medium was used to inoculated each well with 2.5×10^3spores/ml.
After incubation of the microtiter plates for 7 at 25° C., the in vitro antifungal activity (%) of the individual active ingredients was assessed by calculating the reduction in mould growth observed in the presence of the active ingredient in comparison to the mould growth observed in the absence of the active ingredient. The expected antifungal activity (E in %) of the active ingredient combination was calculated according to the Colby equation (Colby, 1967): […]
(§1) wherein X and Y are the observed antifungal activities (in %) of the individual active ingredients X and Y, respectively. If the observed antifungal activity (O in %) of the combination exceeds the expected antifungal activity (E in %) of the combination and the resulting synergy factor O/E is thus >1.0, the combined application of the active ingredients leads to a synergistic antifungal effect.
Furthermore, Fusarium proliferatum was used for inoculation.

Fusarium proliferatum [2] = test: Treatment of wounded, inoculated bananas with antifungal compositions (mould growth); assay type: in vivo
Method: Four organic, unripe (green) bananas were used per treatment. The peel of each banana was wounded thrice using a cork borer according to the method described by de Lapeyre de Bellaire and Dubois (1987). Subsequently, each wound was inoculated with 15 μl of a Fusarium proliferatum suspension containing 1×10^5 of spores/ml. […] In addition, the antifungal compositions comprised 1.00% (w/w) methylhydroxyethylcellulose (MHEC), 0.40% (w/w) xanthan gum, 0.20% (w/w) anti-foaming agent, 0.30% (w/w) citric acid, 0.39% (w/w) lactic acid and 0.11% (w/w) potassium sorbate. The pH of the composition was 4.
The treated, unripe bananas were incubated in a closed box in the dark at 20° C. and a relative air humidity of 95%, which was obtained in the presence of a saturated Na2HPO4 aqueous solution. A ripe (yellow) banana was included in the closed box to elevate the ethylene gas level and thus induce ripening of the treated, unripe bananas.
The expected antifungal activity (E in %) of the combined antifungal composition comprising both active ingredients was calculated according to the Colby equation (Colby, 1967): […]
as §1, with “the” for “the resulting”

Botrytis cinerea [3] = test: In vitro antifungal activity, 96-well microtiter plates; assay type: cell-based; settings: 0.63 ppm natamycin, 25 ppm cyazofamid, 50 ppm fenamidone, or natamycin plus one of these, 7 days at 25° C.
Method: Subsequently, 100 μl of a Botrytis cinerea suspension prepared in PCB medium was used to inoculated each well with 2.5×10^3spores/ml. […] The expected antifungal activity (E in %) of the active ingredient combination was calculated according to the Colby equation (Colby, 1967): […] wherein X and Y are the observed antifungal activities (in %) of the individual active ingredients X and Y, respectively.

Botrytis cinerea [4] = test: Treatment of wounded, inoculated strawberries by dipping in antifungal compositions (mould growth); assay type: in vivo; settings: for Observed antifungal activity O (%): strawberries
Method: Twelve fresh, organic strawberries were used per treatment. Each strawberry was wounded with a 0.5 mm long cut and each wound was inoculated with 10 μl of a Botrytis cinerea suspension containing 1×10^5 of spores/ml. […] The antifungal composition also comprised 1.00% (w/w) methylhydroxyethylcellulose (MHEC), 0.40% (w/w) xanthan gum, 0.20% (w/w) anti-foaming agent, 0.30% (w/w) citric acid, 0.39% (w/w) lactic acid and 0.11% (w/w) potassium sorbate. The pH of the composition was 4.
The treated strawberries were incubated in a closed box in the dark at 20° C. […]. […] The expected antifungal activity (E in %) of the combined antifungal composition comprising both active ingredients was calculated according to the Colby equation (Colby, 1967): […]
as §1, with “the” for “the resulting”
The treated strawberries were assessed on mould growth after 3, 4, 5, 7, 8 and 9 days of incubation according to the two methods described in Example 6.

[5] = 2.5 ppm natamycin, 50 ppm cyazofamid or both
[6] = 250 ppm natamycin, 500 ppm cyazofamid or both, 27 days at 20° C.
[7] = 500 ppm natamycin, 2000 ppm cyazofamid or both, 21 days at 20° C.
[8] = 500 ppm natamycin, 2000 ppm cyazofamid or both, 23 days at 20° C.
[9] = 500 ppm natamycin, 2000 ppm cyazofamid or both, 24 days at 20° C.
[10] = 50 ppm natamycin, 250 ppm fenamidone or both, Day 3 at 20° C.
[11] = 50 ppm natamycin, 250 ppm fenamidone or both, Day 4 at 20° C.
[12] = 50 ppm natamycin, 250 ppm fenamidone or both, Day 5 at 20° C.
[13] = 500 ppm natamycin, 1000 ppm fenamidone or both, Day 3 at 20° C.
[14] = 500 ppm natamycin, 1000 ppm fenamidone or both, Day 5 at 20° C.
[15] = 50 ppm natamycin, 250 ppm fenamidone or both, 3 days at 20° C.
[16] = 50 ppm natamycin, 250 ppm fenamidone or both, 4 days at 20° C.
[17] = 50 ppm natamycin, 250 ppm fenamidone or both, 5 days at 20° C.
[18] = 50 ppm natamycin, 250 ppm fenamidone or both, 7 days at 20° C.
[19] = 50 ppm natamycin, 250 ppm fenamidone or both, 8 days at 20° C.
[20] = 50 ppm natamycin, 250 ppm fenamidone or both, 9 days at 20° C.
[21] = 500 ppm natamycin, 1000 ppm fenamidone or both, 3 days at 20° C.
[22] = 500 ppm natamycin, 1000 ppm fenamidone or both, 4 days at 20° C.
[23] = 500 ppm natamycin, 1000 ppm fenamidone or both, 5 days at 20° C.
[24] = 500 ppm natamycin, 1000 ppm fenamidone or both, 7 days at 20° C.
[25] = 500 ppm natamycin, 1000 ppm fenamidone or both, 8 days at 20° C.
[26] = 500 ppm natamycin, 1000 ppm fenamidone or both, 9 days at 20° C.

Compound: Cc1ccc(-c2c(Cl)nc(C#N)n2S(=O)(=O)N(C)C)cc1 [Cyazofamid, cyazofamid]
- Observed antifungal activity O (%) (Fusarium proliferatum [1]; [5]): 0%
- Observed antifungal activity O (%) (Fusarium proliferatum [1]; 75 ppm cyazofamid alone or with 2.5 ppm natamycin): 0%
- Observed antifungal activity O (%) (Fusarium proliferatum [2]; 50 ppm natamycin, 250 ppm cyazofamid or both, 27 days at 20° C.): 0%
- Observed antifungal activity O (%) (Fusarium proliferatum [2]; [6]): 1%
- Observed antifungal activity O (%) (Fusarium proliferatum [2]; [7]): 0%
- Observed antifungal activity O (%) (Fusarium proliferatum [2]; [8]): 0%
- Observed antifungal activity O (%) (Fusarium proliferatum [2]; [9]): 0%
- Observed antifungal activity O (%) (Botrytis cinerea [3]): 0%

Compound: CSC1=N[C@@](C)(c2ccccc2)C(=O)N1Nc1ccccc1 [Fenamidone, fenamidone]
- Number of moulded strawberries/total number of 12 strawberries (Botrytis cinerea [4]; [10]): 12 and 12/12
- Number of moulded strawberries/total number of 12 strawberries (Botrytis cinerea [4]; [11]): 12 and 12/12
- Number of moulded strawberries/total number of 12 strawberries (Botrytis cinerea [4]; [12]): 12 and 12/12
- Number of moulded strawberries/total number of 12 strawberries (Botrytis cinerea [4]; [13]): 12 and 12/12
- Number of moulded strawberries/total number of 12 strawberries (Botrytis cinerea [4]; [14]): 12 and 12/12
- Observed antifungal activity O (%) (Botrytis cinerea [4]; [15]): 0%
- Observed antifungal activity O (%) (Botrytis cinerea [4]; [16]): 0%
- Observed antifungal activity O (%) (Botrytis cinerea [4]; [17]): 0%
- Observed antifungal activity O (%) (Botrytis cinerea [4]; [18]): 0%
- Observed antifungal activity O (%) (Botrytis cinerea [4]; [19]): 0%
- Observed antifungal activity O (%) (Botrytis cinerea [4]; [20]): 0%
- Observed antifungal activity O (%) (Botrytis cinerea [4]; [21]): 9%
- Observed antifungal activity O (%) (Botrytis cinerea [4]; [22]): 0%
- Observed antifungal activity O (%) (Botrytis cinerea [4]; [23]): 0%
- Observed antifungal activity O (%) (Botrytis cinerea [4]; [24]): 0%
- Observed antifungal activity O (%) (Botrytis cinerea [4]; [25]): 0%
- Observed antifungal activity O (%) (Botrytis cinerea [4]; [26]): 0%
- Observed antifungal activity O (%) (Botrytis cinerea [3]): 0%

Compound: C[C@@H]1C/C=C/C=C/C=C/C=C/[C@H](O[C@@H]2O[C@H](C)[C@@H](O)[C@H](N)[C@@H]2O)C[C@@H]2O[C@](O)(C[C@@H](O)C[C@H]3O[C@@H]3/C=C/C(=O)O1)C[C@H](O)[C@H]2C(=O)O [Natamycin, natamycin]
- Observed antifungal activity O (%) (Fusarium proliferatum [1]; [5]): 0%
- Observed antifungal activity O (%) (Fusarium proliferatum [2]; [6]): 4%
- Observed antifungal activity O (%) (Fusarium proliferatum [2]; [7]): 94%
- Observed antifungal activity O (%) (Fusarium proliferatum [2]; [8]): 86%
- Observed antifungal activity O (%) (Fusarium proliferatum [2]; [9]): 84%
- Number of moulded strawberries/total number of 12 strawberries (Botrytis cinerea [4]; [10]): 3 and 3/12
- Number of moulded strawberries/total number of 12 strawberries (Botrytis cinerea [4]; [11]): 5 and 5/12
- Number of moulded strawberries/total number of 12 strawberries (Botrytis cinerea [4]; [12]): 10 and 10/12
- Number of moulded strawberries/total number of 12 strawberries (Botrytis cinerea [4]; [13]): 3 and 3/12
- Number of moulded strawberries/total number of 12 strawberries (Botrytis cinerea [4]; [14]): 11 and 11/12
- Observed antifungal activity O (%) (Botrytis cinerea [4]; [15]): 64%
- Observed antifungal activity O (%) (Botrytis cinerea [4]; [16]): 50%
- Observed antifungal activity O (%) (Botrytis cinerea [4]; [17]): 17%
- Observed antifungal activity O (%) (Botrytis cinerea [4]; [18]): 17%
- Observed antifungal activity O (%) (Botrytis cinerea [4]; [19]): 10%
- Observed antifungal activity O (%) (Botrytis cinerea [4]; [20]): 0%
- Observed antifungal activity O (%) (Botrytis cinerea [4]; [21]): 75%
- Observed antifungal activity O (%) (Botrytis cinerea [4]; [22]): 69%
- Observed antifungal activity O (%) (Botrytis cinerea [4]; [23]): 31%
- Observed antifungal activity O (%) (Botrytis cinerea [4]; [24]): 13%
- Observed antifungal activity O (%) (Botrytis cinerea [4]; [25]): 0%
- Observed antifungal activity O (%) (Botrytis cinerea [4]; [26]): 0%
- Observed antifungal activity O (%) (Botrytis cinerea [3]): 0%
